Test results published in patent US20250314665A1, “BIOMARKERS FOR CEREBRAL METABOLIC DISORDERS, AND DIAGNOSTIC METHODS USING THEREOF” (COMMISSARIAT A L'ENERGIE ATOMIQUE ET AUX ENERGIES …, priority 2022, published 2025).
Entries after “also recorded” stand apart in the source; their conditions may differ.

Key:
Format in all cases: in vivo, mouse
CrT KO mice [1] = assay: Object recognition test (ORT) in DCE-treated CrT KO mice
Method: (§1) Treatment continued during behavioral testing, which took two weeks, for a total of 30 days of treatment. The testing order for behavioral assessment performed in the same mice consisted of: object recognition test (ORT) 24 h (3 days), Y maze (1 day), Morris water maze (MWM) with hidden platform (7 days).
The day before testing, mice were familiarized with the empty arena for 10 min. The object recognition test (ORT), which is based on the spontaneous tendency of rodents to spend more time exploring a novel object than a familiar one, measures short- and long-term memory and consists of a sample and a testing phase. During the sample phase, mice were placed in the arena with two identical objects placed in diagonally opposite corners of the arena (about 6 cm from the walls) for 10 min. The test phase was 24 hours after the sample phase. Mice were returned to the arena with an identical copy of one of the familiar objects and a new object placed in the same position. The mice explored the objects for 5 min.
(§2) DCE was intranasally administered (Ullio-Gamboa G, et al. Dodecyl creatine ester-loaded nanoemulsion as a promising therapy for creatine transporter deficiency. Nanomedicine 14, 1579-1593 (2019)) to Slc6a8^−/y for 30 days, once a day at 4 mg/g of body weight, whilst the control groups were wild-type (WT) and vehicle-treated (Veh) Slc6a8^−/y mice, at N=8/group. Cognitive performance was evaluated using the object recognition test, the Y-maze, and the Morris water maze (MWM). Then, proteomics was performed on four different brain regions: cortex, hippocampus, cerebellum and brainstem; and the key protein abundances were correlated with behavioral performance, identifying several mechanistic pathways.

CrT KO mice [2] = assay: Y maze spontaneous alternation in DCE-treated CrT KO mice
Method: as §1
Mice were placed in the center of the maze and movement was recorded for 8 min. The number of arm entries (all four limbs within the arm) and the number of triads (three arm entries) were video-recorded in order to calculate the alternation percentage defined as the number of triads divided by the number of possible alternations (total arm entries minus 2) and then multiplying by 100.
as §2

CrT KO mice [3] = assay: Morris water maze (MWM) in DCE-treated CrT KO mice; conditions: DCE intranasal 4 mg/g once a day; hidden platform, 7 days
Method: as §1
Mice were trained for 4 trials per day and for a total of 7 days in a circular water tank (diameter, 120 cm; height, 40 cm), filled with water (23° C.) rendered opaque by the addition of a non-toxic white paint to a depth of 25 cm. […] Mice were allowed up to 60 s to reach the escape platform, and their swimming paths were automatically recorded by the Noldus Ethovision system. On the last trial of the last training day, mice received a probe trial, during which the escape platform was removed from the tank and the swimming paths were recorded over 60 s while mice searched for the missing platform
as §2, with “Then, proteomics was performed on four different brain regions: cortex, hippocampus, cerebellum and brainstem; and the key protein abundances were correlated with behavioral performance, identifying several mechanistic pathways.” left out

CrT KO mice [4] = assay: Label-free shotgun proteomics of brain regions after DCE treatment
Method: Total protein (15 μg) was extracted from different brain regions and mixed with lithium dodecyl sulfate lysis buffer (Invitrogen) and incubated at 99° C. for 5 min, and then separated by a short electrophoresis migration (5 min) at 200 V on NuPAGE 4-12% Bis-Tris gel with MES/SDS 1× (Invitrogen) as running buffer. Gels were stained with SimplyBlue SafeStain (Thermo) for 5 min followed by an overnight wash in water with gentle agitation. The polyacrylamide band containing the whole proteome from each sample was excised and treated as recommended (Hartmann E M, Armengaud J. N-terminomics and proteogenomics, getting off to a good start. Proteomics 14, 2637-2646 (2014)). Proteins were in-gel proteolyzed with trypsin gold (Promega) in the presence of 0.01% of Protease Max surfactant (Promega) at 50° C. for 60 min. From the resulting peptide fraction (50 μL), a volume of 1 μL corresponding to approximately 300 ng of peptides was analyzed by liquid chromatography-tandem mass spectrometry (LC-MS/MS) using an Ultimate 3000 nano-LC system coupled to a Q-Exactive HF mass spectrometer (Thermo Scientific) operated as described previously (Hartmann E M, Armengaud J. N-terminomics and proteogenomics, getting off to a good start. Proteomics 14, 2637-2646 (2014)). Peptides were loaded on a reverse-phase PepMap 100 C18 μ-precolumn (5 μm, 100 Å, 300 μm i.d.×5 mm, Thermo Fisher), and then resolved on a nanoscale PepMap 100 C18 nanoLC column (3 μm, 100 Å, 75 μm i.d.×50 cm, Thermo Fisher) at a flow rate of 0.2 μL·min^−1 using a 90-min gradient (4% B for 0 to 3 min, 4-25% B from 3 to 78 min and 25-40% B from 78 to 93 min) with mobile phase A corresponding to 0.1% HCOOH/100% H2O and mobile phase B corresponding to 0.1% HCOOH/80% CH3CN/20% H2O). The mass spectrometer was operated in Top20 mode, with a scan range of MS acquisition from 350 to 1800 m/z and selection and fragmentation using a 10 s dynamic exclusion time for the 20 most abundant precursor ions. Only ion precursors with a 2+ or 3+ charge were selected for High-energy collisional dissociation (HCD) fragmentation performed at a normalized collision energy of 27 eV.
MS/MS spectra were assigned using the Mascot Daemon software version 2.6.1 (Matrix Science) and the Mus musculus SwissProt database comprising 17,096 protein sequences. Peptide tolerance, MS/MS fragment tolerance, and the maximum of missed cleavages were set at 5 ppm, 0.02 D and 2, respectively. Carbamidomethylation of cysteine was considered as fixed modification. Oxidation of methionine was taken into account as variable modification. Peptides identified at a p-value≤0.05 in homology threshold mode and proteins identified with at least two distinct peptides were selected (false discovery rate below 1%).
In-house script was constructed, using R programming language, to identify the differentially expressed proteins between the […] four different regions of the brain: cortex, cerebellum, hippocampus and brainstem. Initially, the proteomics data were normalized using the Variance Stabilizing Normalization (Motakis E S, Nason G P, Fryzlewicz P, Rutter G A. Variance stabilization and normalization for one-color microarray data using a data-driven multiscale approach. Bioinformatics 22, 2547-2553 (2006)). Proteins with at least 10 MS/MS spectra across all conditions were retained. Unsupervised variation filter was then applied to the proteomics data (Hamoudi R A, et al. Differential expression of NF-kappaB target genes in MALT lymphoma with and without chromosome translocation: insights into molecular mechanism. Leukemia 24, 1487-1497 (2010)) where any 8 samples with MS/MS detected protein were included. […]

CrT KO mice [5] = assay: Western blotting of dissected brain tissue after DCE treatment
Method: Western blotting was used to detect the abundance of PLCB1 and the two inhibitors of NFkB, IKBα and IKBβ, in the dissected brain tissue. Briefly, brain tissue was homogenized in freshly prepared lysis buffer containing 20 mM Trizma-Base, 150 mM NaCl, pH 7.4 (Sigma-Aldrich, Saint-Quentin Fallavier, France) and supplemented with 1% Triton X-100, 4% of complete Protease Inhibitor Cocktail and 20% of a mix of anti-phosphatase inhibitors using a Precellys Evolution tissue homogenizer. The samples were then centrifuged first at 2500×g (15 min) and then at 10 000×g (20 min) on homogenates to produce lysate for electrophoresis. Proteins (10 to 20 μg) and protein standard in Laemmli buffer were loaded on 4%-15% CRITERION TGX STAIN-FREE protein gel in running buffer TGS 1×(all from Bio-Rad, Marnes-la-Coquette, France) and transferred to a 0.2 μm PVDF membrane with the Trans-Blot Turbo RTA Midi Transfer Kit (Bio-Rad, Marnes-la-Coquette, France). Membranes were blocked for 30 min in 5% low-fat milk in TBS-Tween 20 0.1% at room temperature. Blots were probed with specific primary antibodies overnight at 4° C. and detected by horseradish peroxidase secondary antibodies diluted 1:5 000 or 1:50 000 in 5% low-fat milk in TBS-Tween 20 0.1% at room temperature. For protein detection, membranes were exposed to the ECL prime Western blotting system (Amersham, UK) or Clarity western ECL substrate in a chemidoc touch imaging system for a measurable exposure time (Bio-Rad, Marnes-la-Coquette, France) and quantified with Image Lab Software (Bio-Rad, Marnes-la-Coquette, France). The following antibodies and dilutions were used: anti-PLCB1 (1/1000, Abcam, ab182359), anti-IKBα (1/500, Cell Signaling Technology, 4812S), anti-IKBβ (1/500, Cell Signaling Technology, 15519S), anti-PSD95 (1/2000, Merck, MABN68), and anti-tubulin (1/2000, Sigma-Aldrich, T6199), anti-KIF1A (1/1000, Abcam, ab180153).
as §2

`CCCCCCCCCCCCOC(=O)CN(C)C(=N)N` [DCE, dodecyl creatine ester] was tested, and the “time observing the novel object, DCE-treated vs vehicle-treated CrT KO mice” value (CrT KO mice [1]; ORT 24 h, DCE intranasal once a day 4 mg/g body weight, 30 days, N=8/group, one-way ANOVA p<0.01, Tukey p<0.05) was “more time”, the “median time (novel object) of DCE-treated group as % of the WT median value” (CrT KO mice [1]; ORT, DCE intranasal 4 mg/g once a day) was 96% and the “observation time of novel object compared with WT mice” value (CrT KO mice [1]; ORT, DCE intranasal 4 mg/g once a day, p=0.406) was “no difference”. For the same compound, the “object discrimination index / percent time with the novel object (FIG. 2A, 2B)” value (CrT KO mice [1]; ORT, WT and DCE-treated, but not vehicle-treated KO mice) was “preference for the novel object”, the “spontaneous alternation performance in Y-maze vs vehicle CrT KO mice” value (CrT KO mice [2]; DCE intranasal 4 mg/g once a day) was “higher; also recorded: significantly improved” and the “alternation rate in Y-maze vs WT mice” value (CrT KO mice [2]; DCE-treated CrT KO mice, P=0.058) was “did not differ”. The “median alternation rate in Y-maze” value (CrT KO mice [2]; DCE-treated CrT KO mice, vehicle 48%, WT 62%, P=0.058 vs WT) was 86%, the “memory abilities in MWM” value (CrT KO mice [3]) was “No positive effects” and the “presynaptic IgSF8 protein abundance” value (CrT KO mice [4]; brain cortex) was “significantly upregulated”. For the same compound, the “ANK1 abundance (downregulated in vehicle CrT KO mice), effect of DCE treatment” value (CrT KO mice [4]; cerebellum) was “significantly rescued”, the “ANXA5 abundance (downregulated in vehicle CrT KO mice), effect of DCE treatment” value (CrT KO mice [4]; cerebellum) was “significantly rescued” and the “FABP7 abundance (upregulated in CrT KO mice), DCE-treated CrT KO vs WT” value (CrT KO mice [4]; cerebellum) was “unchanged”. For the same compound, the “LMNB1 abundance (upregulated in CrT KO mice), DCE-treated CrT KO vs WT” value (CrT KO mice [4]; cerebellum) was “unchanged”, the “MeCP2 abundance (downregulated in vehicle CrT KO mice), effect of DCE treatment” value (CrT KO mice [4]; cerebellum) was “significantly rescued” and the “PURB abundance (upregulated in CrT KO mice), DCE-treated CrT KO vs WT” value (CrT KO mice [4]; cerebellum) was “unchanged”. For the same compound, the “DCLK1 abundance (upregulated in CrT KO mice), DCE-treated CrT KO vs WT” value (CrT KO mice [4]; cortex) was “unchanged”, the “NCAM1 abundance (upregulated in CrT KO mice), DCE-treated CrT KO vs WT” value (CrT KO mice [4]; cortex) was “unchanged” and the “PI4KA abundance (upregulated in CrT KO mice), DCE-treated CrT KO vs WT” value (CrT KO mice [4]; cortex) was “unchanged”. The “PLCB1 abundance (downregulated in vehicle CrT KO mice), effect of DCE treatment” value (CrT KO mice [4]; cortex) was “significantly rescued”, the “PURB abundance (upregulated in CrT KO mice), DCE-treated CrT KO vs WT” value (CrT KO mice [4]; cortex) was “unchanged” and the “IGSF8 abundance (downregulated in vehicle CrT KO mice), effect of DCE treatment” value (CrT KO mice [4]; hippocampus) was “significantly rescued”. The “KIF1A abundance (upregulated in CrT KO mice), DCE-treated CrT KO vs WT” value (CrT KO mice [4]; hippocampus) was “unchanged”, the “L1CAM abundance (upregulated in CrT KO mice), DCE-treated CrT KO vs WT” value (CrT KO mice [4]; hippocampus) was “unchanged” and the “NCAM1 abundance (upregulated in CrT KO mice), DCE-treated CrT KO vs WT” value (CrT KO mice [4]; hippocampus) was “unchanged”. For the same compound, the “PLCB1 protein abundance by Western blot” value (CrT KO mice [5]; brain cortex, DCE-treated CrT KO mice, p=0.0004) was “significant increase; also recorded: significantly increased”, the “IκBα protein level by Western blot” value (CrT KO mice [5]; brain cortex, DCE-treated CrT KO mice, p=0.008) was “reconstituted; also recorded: promotes” and the “postsynaptic density protein PSD95 by Western blot” value (CrT KO mice [5]; brain cortex, p=0.0096) was “significantly upregulated”. For the same compound, the “KIF1A by Western blot (overexpressed in vehicle CrT KO mice)” value (shortened to “KIF1A by Western blot”) (CrT KO mice [5]; cerebellum) was “rescued this overexpression”, the “PLCB1 protein abundance by Western blot” value (CrT KO mice [5]; cerebellum, DCE-treated CrT KO mice) was “significantly increased” and the “KIF1A by Western blot” value (CrT KO mice [5]; cortex) was “rescued this overexpression”. For the same compound, the “Pro-BDNF/BDNF level by Western blot” value (CrT KO mice [5]; cortex, p=0.0043) was “higher”, the “KIF1A by Western blot” value (CrT KO mice [5]; hippocampus) was “rescued this overexpression” and the “PLCB1 protein abundance by Western blot” value (CrT KO mice [5]; hippocampus, DCE-treated CrT KO mice) was “significantly increased”.
